Experimental data published in publication PMC12104396, “Comparative in vitro assessment of CYP2C19 inhibition by ilaprazole and conventional proton pump inhibitors using a high throughput fluorometric assay” (Scientific Reports, 2025).
“And” between values parts separate entries of the source, which are not always exact repeats. Equal values may be shown once.

Tests used:
CYP2C19 = molecular target: T1, CYP2C19 (Homo sapiens, UniProt P33261); experiment: High-throughput fluorometric CYP2C19 inhibition assay (Vivid CYP2C19 Blue Screening Kit, EOMCC substrate, endpoint mode); type: biochemical; settings: for Ki: approximated as IC50,u/2 (Cheng-Prusoff, S much lower than Km), read-out: Ki,u (unbound inhibition constant); for IC50: recombinant human CYP2C19 BACULOSOMES, eight concentrations, duplicate, nonlinear regression
T1 construct: purchased Thermo Scientific P2864
Method: Vivid™ CYP2C19 Blue Screening Kit (Thermo Scientific; Cat. No. P2864).
Vivid® CYP450 2X Reaction Buffer 100 Mm, CYP2C19 BACULOSOMES® Plus Reagent 0.5 nmol (Recombinant human cytochrome P450), 0.5 mL Vivid® Regeneration System (Glucose-6-phosphate and 30U/mL Glucose-6-phosphate dehydrogenase in 100 mM Potassium phosphate), 0.5 mL Vivid® NADP + , Vivid® EOMCC Substrate 0.1 mg, Vivid® Blue Fluorescent Standard 0.1 µmol.
Test compounds: Dissolved in DMSO; diluted to 2.5X in 1X buffer.
Positive control inhibitor (Ticlopidine): Stock in DMSO; 2.5X dilution in 1X buffer.
Master Pre-Mix: P450 BACULOSOMES® (50 µL) + Vivid® Regeneration System (100 µL) in 1X buffer.
Substrate/NADP + Mixture: Reconstituted substrate (0.1 mg in 205 µL acetonitrile); added 50 µL substrate + 30 µL NADP + (100X).
A high-throughput fluorometric assay was conducted using a black 96-well microplate. Fluorescence measurements were recorded on a BioTek Synergy H1 multimode microplate reader (Agilent, US) with the appropriate excitation/emission wavelength. The assay followed the protocol provided by Life Technologies, USA. Test compounds were evaluated based on their ability to inhibit fluorescent signal production in reactions involving recombinant CYP isozymes and specific substrates. For IC50 determination, two-fold serial dilutions of the test samples were prepared, and the plates were incubated at 37 °C for 20 min. The enzymatic reaction was initiated by adding a mixture of NADP + and the appropriate substrate, followed by a 10-min incubation at 37 °C. The reaction was then stopped by adding 0.5 M Tris buffer (end-point assay). Fluorescence data was collected at eight different concentrations for both inhibitors and test compounds, with all measurements performed in duplicate.
Fluorescence data were collected after the incubation period, to calculate the percentage inhibition using the following formula: [drawing 1]
X = Fluorescence intensity of test compound (PPIs), A = Fluorescence intensity of solvent control (Fluorescence standard), B = Fluorescence intensity of the positive inhibitor (Ticlopidine).
IC50 values for CYP2C19 (the concentration required to inhibit 50% of CYP2C19 activity) inhibition were calculated using nonlinear regression analysis in GraphPad Prism 9 software.
IC₅₀,u (unbound IC₅₀) was calculated using the formula: [drawing 2] fu, inc = Fraction unbound in the incubation system (0.02, as per regulatory assumptions for highly protein-bound drugs).
The unbound inhibition constant (Ki,u) was determined using the Cheng-Prusoff equation: [drawing 3]
S = Substrate concentration used in the assay, IC₅₀,u = unbound half-maximal inhibitory concentration, Km = Michaelis constant for the substrate.
Fluorometric assay is the most commonly used method to identify the CYP inhibition of compounds in early drug discovery due to its sensitivity, speed, low cost, and ease of use. This method helps to ensure the drug interaction potential of the test compound on the important CYP isoforms such as CYP2C19. Inhibitor potency was quantified by determining IC50 values, which in turn was carried out using fixed substrate and inhibitor concentrations. Ilaprazole, Conventional PPIs, and Positive Control (Ticlopidine) were assayed between concentrations ranging from 0.8 to 6.4 μg/mL (Eight Different Concentration). All samples were assayed in duplicate as per the experimental condition (Table 1), the endpoint mode was selected to analyze the percentage inhibition, and IC50 values were calculated.

[1] = Unbound peak plasma concentration (Cmax,u) from literature Cmax; type: in vivo; settings: unbound peak plasma concentration = literature Cmax x fu 0.01; highest recommended doses
Description: The Cmax values for Pantoprazole, Rabeprazole, Lansoprazole, and Omeprazole were obtained from reliable sources, primarily the highest recommended doses listed in the FDA drug labels[15]–[19]. However, for Ilaprazole, as no literature data was available, its Cmax was obtained from available pharmacokinetic studies [drawing 4]
Cmax,u = unbound peak plasma concentration, Cmax = Maximum plasma concentration (from literature), fu = fraction unbound in plasma (0.01 as per the guidance for high protein-bound drugs).

T1 sequence (P33261 whole entry): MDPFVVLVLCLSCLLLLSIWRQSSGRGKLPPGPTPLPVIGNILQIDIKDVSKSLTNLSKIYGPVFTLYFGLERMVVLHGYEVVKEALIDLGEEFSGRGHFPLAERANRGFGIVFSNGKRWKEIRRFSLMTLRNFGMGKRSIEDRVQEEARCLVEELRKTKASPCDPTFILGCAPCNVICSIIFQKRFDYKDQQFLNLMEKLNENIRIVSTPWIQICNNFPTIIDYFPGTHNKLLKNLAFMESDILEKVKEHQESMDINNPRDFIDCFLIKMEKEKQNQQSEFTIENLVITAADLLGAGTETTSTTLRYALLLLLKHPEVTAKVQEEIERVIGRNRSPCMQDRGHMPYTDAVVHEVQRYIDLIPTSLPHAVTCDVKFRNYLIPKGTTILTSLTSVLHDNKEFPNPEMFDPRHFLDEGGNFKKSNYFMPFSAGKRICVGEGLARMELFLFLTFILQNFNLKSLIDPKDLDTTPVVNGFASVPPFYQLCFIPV

Compound	Ki (CYP2C19) [µM]	IC50 (CYP2C19) [µM]	Cmax,u [1]
COc1ccnc(C[S+]([O-])c2nc3ccc(OC(F)F)cc3[nH]2)c1OC (stereo not drawn) [Pantoprazole]	88	3.52 ± 1.47	0.025 µg/mL and 0.0652 µM
COc1ccc2[nH]c([S+]([O-])Cc3ncc(C)c(OC)c3C)nc2c1 (stereo not drawn) [Omeprazole]	35.2	1.41 ± 0.96	0.0112 µg/mL and 0.0324 µM
COCCCOc1ccnc(C[S+]([O-])c2nc3ccccc3[nH]2)c1C (stereo not drawn) [Rabeprazole]	161	6.43 ± 1.09	0.0062 µg/mL and 0.0173 µM
COc1ccnc(C[S+]([O-])c2nc3cc(-n4cccc4)ccc3[nH]2)c1C (stereo not drawn) [Ilaprazole]	166	6.62 ± 1.34	0.0045 µg/mL and 0.0123 µM
Cc1c(OCC(F)(F)F)ccnc1C[S+]([O-])c1nc2ccccc2[nH]1 (stereo not drawn) [Lansoprazole]	41.3	1.65 ± 1.37	0.0115 µg/mL and 0.0311 µM
